# Values joined by “and” are separate entries in the source; they are usually repeats but may differ in a detail not shown here. Equal entries are not always repeated.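 Exposure lasted 48 hours, with cells grown in 96-well plates and compounds tested at five concentrations. The concentration for 50% growth inhibition is given as GI50. The concentration for full growth arrest is given as TGI.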
# Assays:
# Test in all cases: NCI-60 cell line screen, 48 h
# SR leukemia = tested on: SR leukemia
# RXF 393 renal = tested on: RXF 393 renal
# A498 renal = tested on: A498 renal
# HCC-2998 colon = tested on: HCC-2998 colon
# K-562 leukemia = tested on: K-562 leukemia
# HCT-116 colon = tested on: HCT-116 colon
# MDA-MB-231 breast = tested on: MDA-MB-231 breast
# NCI-H522 lung = tested on: NCI-H522 lung
# SF-268 CNS = tested on: SF-268 CNS
# RPMI-8226 leukemia = tested on: RPMI-8226 leukemia
smiles,measurement,setting,value
O=C1C=C(c2ccccc2)NC1(c1ccccc1)c1cc(-c2ccccc2)[nH]c1-c1ccccc1 (stereo not given),TGI,SR leukemia,> 100 µM
same,TGI,RXF 393 renal,0.586 µM
same,TGI,A498 renal,> 100 µM
same,TGI,HCC-2998 colon,> 100 µM
same,TGI,K-562 leukemia,> 100 µM
same,TGI,HCT-116 colon,> 100 µM
CN(C)Cc1c[nH]c2nc[nH]c(=O)c12,TGI,SR leukemia,53.7 µM
same,TGI,MDA-MB-231 breast,> 100 µM
same,TGI,RXF 393 renal,45.9 µM
same,TGI,NCI-H522 lung,> 100 µM
same,TGI,A498 renal,> 100 µM
same,TGI,SF-268 CNS,> 100 µM
same,TGI,RPMI-8226 leukemia,59.4 µM
same,TGI,K-562 leukemia,44.4 µM
same,TGI,HCT-116 colon,51.5 µM
COc1ccc(-c2cc(-c3ccco3)c(C#N)c(=O)n2C2OC(COC(C)=O)C(OC(C)=O)C(OC(C)=O)C2OC(C)=O)cc1 (stereo not given),TGI,SR leukemia,> 100 µM
same,GI50,RXF 393 renal,> 100 µM and 21.8 µM
same,TGI,RXF 393 renal,> 100 µM and 66.2 µM
same,GI50,NCI-H522 lung,42.8 µM and 11 µM
same,TGI,NCI-H522 lung,> 100 µM and 60.4 µM
same,GI50,A498 renal,> 100 µM and 22 µM
same,TGI,A498 renal,> 100 µM and 75.8 µM
same,TGI,HCC-2998 colon,> 100 µM
same,GI50,SF-268 CNS,> 100 µM and 28.2 µM
same,TGI,SF-268 CNS,> 100 µM
same,TGI,RPMI-8226 leukemia,> 100 µM
same,GI50,K-562 leukemia,48.1 µM and 8.84 µM
same,TGI,K-562 leukemia,> 100 µM
same,TGI,HCT-116 colon,> 100 µM and 21.1 µM
NNC(=O)C(=O)N/N=C1\CCCC1C(=O)CCC(=O)Nc1cccc(Cl)c1 (stereo not given),TGI,RXF 393 renal,> 100 µM
same,TGI,HCC-2998 colon,> 100 µM
same,TGI,SF-268 CNS,> 100 µM
same,TGI,RPMI-8226 leukemia,> 100 µM
same,TGI,HCT-116 colon,> 100 µM
CCCOC(=O)C1C(c2ccc(OC)cc2)NC(c2ccc(OC)cc2)C(C(=O)OCCC)S1(=O)=O (stereo not given),TGI,SR leukemia,> 100 µM
same,GI50,RXF 393 renal,> 100 µM
same,TGI,RXF 393 renal,> 100 µM
same,GI50,NCI-H522 lung,> 100 µM
same,TGI,NCI-H522 lung,> 100 µM
same,TGI,A498 renal,> 100 µM
same,GI50,HCC-2998 colon,> 100000 nM
same,TGI,HCC-2998 colon,> 100 µM
same,GI50,SF-268 CNS,> 100 µM
same,TGI,SF-268 CNS,> 100 µM
same,GI50,RPMI-8226 leukemia,> 100 µM
same,TGI,RPMI-8226 leukemia,> 100 µM
same,GI50,K-562 leukemia,> 100 µM
same,TGI,K-562 leukemia,> 100 µM
same,GI50,HCT-116 colon,> 100 µM
same,TGI,HCT-116 colon,> 100 µM
Cc1cc(N)c2cc(NC(=O)/C=C\c3ccccc3Cl)ccc2n1,GI50,MDA-MB-231 breast,1.21 µM
same,TGI,MDA-MB-231 breast,2.47 µM
same,GI50,RXF 393 renal,1.45 µM
same,TGI,RXF 393 renal,2.91 µM
same,GI50,NCI-H522 lung,1.71 µM
same,TGI,NCI-H522 lung,3.29 µM
same,GI50,A498 renal,1.5 µM
same,TGI,A498 renal,2.95 µM
same,GI50,HCC-2998 colon,485 nM
same,TGI,HCC-2998 colon,1.74 µM
same,GI50,SF-268 CNS,1.44 µM
same,TGI,SF-268 CNS,2.97 µM
same,GI50,K-562 leukemia,0.416 µM
same,TGI,K-562 leukemia,1.48 µM
same,GI50,HCT-116 colon,0.208 µM
same,TGI,HCT-116 colon,0.416 µM
C=CCN=C1NC(=O)C(CC(=O)Nc2ccc([N+](=O)[O-])cc2[N+](=O)[O-])S1 (stereo not given),TGI,RXF 393 renal,> 100 µM
same,TGI,NCI-H522 lung,> 100 µM
same,TGI,A498 renal,> 100 µM
same,TGI,HCC-2998 colon,> 100 µM
same,TGI,SF-268 CNS,> 100 µM
same,TGI,HCT-116 colon,> 100 µM
CC(=O)OC1CCC2(C)C(=CCC3C2CCC2(C)C3CC3OC4(CCC(C)CN4)C(C)C32)C1 (stereo not given),TGI,SR leukemia,> 100 µM
same,TGI,MDA-MB-231 breast,> 100 µM
same,TGI,RXF 393 renal,> 100 µM
same,TGI,NCI-H522 lung,> 100 µM
same,TGI,A498 renal,> 100 µM
same,TGI,SF-268 CNS,> 100 µM
same,TGI,RPMI-8226 leukemia,> 100 µM
same,TGI,K-562 leukemia,> 100 µM
same,TGI,HCT-116 colon,> 100 µM
CCOC(=O)CCC(NC(=O)c1ccc(Oc2nc3cc(N)cc(N)c3nc2-c2ccccc2)cc1)C(=O)OCC (stereo not given),GI50,MDA-MB-231 breast,11.3 µM
same,TGI,MDA-MB-231 breast,32.6 µM
same,GI50,RXF 393 renal,43.9 µM
same,TGI,RXF 393 renal,> 100 µM
same,GI50,NCI-H522 lung,27.5 µM
same,TGI,NCI-H522 lung,> 100 µM
same,GI50,SF-268 CNS,40.7 µM
same,TGI,SF-268 CNS,> 100 µM
same,GI50,RPMI-8226 leukemia,> 100 µM
same,TGI,RPMI-8226 leukemia,> 100 µM
same,GI50,HCT-116 colon,15.1 µM
same,TGI,HCT-116 colon,28.7 µM
O=C1CC2=CCCC2O1 (stereo not given),TGI,RXF 393 renal,> 100 µM
same,TGI,NCI-H522 lung,> 100 µM
same,TGI,A498 renal,> 100 µM
same,TGI,HCC-2998 colon,> 100 µM
same,TGI,SF-268 CNS,> 100 µM
same,TGI,RPMI-8226 leukemia,> 100 µM
same,TGI,K-562 leukemia,> 100 µM
same,TGI,HCT-116 colon,> 100 µM
NNC(=S)N/N=C(\c1nc2ccc(Cl)cc2[nH]c1=O)C(O)c1cccc([N+](=O)[O-])c1 (stereo not given),TGI,SR leukemia,33.8 µM
same,TGI,RXF 393 renal,> 100 µM
same,TGI,NCI-H522 lung,> 100 µM
same,TGI,A498 renal,> 100 µM
same,TGI,HCC-2998 colon,> 100 µM
same,TGI,SF-268 CNS,> 79.5 µM
same,TGI,RPMI-8226 leukemia,> 63.7 µM
same,TGI,K-562 leukemia,> 70.2 µM
same,TGI,HCT-116 colon,> 31.6 µM
